Experimental data as given in ChEMBL document CHEMBL3507680, “University of Dundee, Gates Library screen for HepG2 cell viability”.

Assay: Human HepG2 cell viability assay in 384 well format
Format: toxicity, cell-based
Set-up: dose 125 nL, time 70.5 hour; cytotoxicity at 70.5 h: concentration not given beside the values
Settings: HepG2 cells, read-out: Inhibition

| Structure (SMILES) | cytotoxicity at 70.5 h |
| --- | --- |
| O=c1ccc(-c2ccccc2F)nn1CN1CCCCCC1 | -4.57% |
| NC(=O)CC1CCCCN1C(=O)c1ccc2cc[nH]c2c1 (configuration not stated) | 21.6% |
| Cc1ccc(NS(=O)(=O)c2cc3c(c(C(=O)O)c2)OCCO3)c(F)c1 | 44.6% |
| CN1CCN(CC2CCN(C(=O)CCC3CCCCC3)CC2)CC1 | -2.91% |
| O=S(=O)(NCCNc1ccc(-n2cccn2)nn1)c1ccccc1 | -2.97% |
| O=C(NCc1cc(Br)cs1)Nc1cn[nH]c1 | -23.7% |
| OC(COCc1ccc(Cl)cc1)CN1CCC(c2ccn[nH]2)CC1 (configuration not stated) | -1.37% |
| CC(C)(C)C(O)CN1CCN(C(=O)COCC2CC2)CC1 (configuration not stated) | 1.65% |
| CNC(=O)C1(CCCc2ccncc2)CCN1 (configuration not stated) | -9.29% |
| CC(C)C(=O)N1CCOC[C@H](Oc2ccc(C(F)(F)F)cc2)C1 | -1.93% |
| Cc1cc2cc(C(=O)N[C@@H]3CC[C@@H](N4CCCC4)[C@@H]3O)ccc2o1 | -5.68% |
| CN(C)CCN1CCOCC2(CCCN(C(=O)c3ccccn3)C2)C1 (configuration not stated) | 0.371% |
| Cc1ccc(CN2CCC3(C2)C(=O)N(CC(C)C)c2ccccc23)s1 (configuration not stated) | -7.14% |
| O=C(CC1CC1)N[C@@H]1CN(c2ncccn2)C[C@@H]2CCCO[C@@H]21 | -7.21% |
| NC(=O)C(Nc1ccc(Cl)cc1)c1ccc(F)cc1 (configuration not stated) | -0.513% |
| CCOC(=O)C1CN(S(=O)(=O)C2CC2)Cc2ncn(CC)c21 (configuration not stated) | 11% |
| CCS(=O)(=O)CCNC(=O)c1ccc(-c2ccc(C)cc2)cc1F | -6.67% |
| CSCC(=O)N1CCCN(Cc2cscn2)CC1 | -2.64% |
| O=C(C1CC(c2ccccc2)=NO1)N1CCCCc2ccccc21 (configuration not stated) | -7.24% |
| COc1cc2nc(C)n(CC(=O)NCCCO)c(=O)c2cc1OC | -10.5% |
| CCN1CCO[C@@H]2CN(C(=O)COC3CCCC3)C[C@@H]2C1 | 7.26% |
| Cc1cc(CN2CCN(C(=O)NC(C)c3ccc(C)o3)CC2)on1 (configuration not stated) | -9.49% |
| COc1cccc(Cn2cc(C3=CCN(CCO)CC3)cn2)c1 | -11% |

| Structure (SMILES) | cytotoxicity at 70.5 h |
| --- | --- |
| CC(C)[C@H]1CN(Cc2ccccn2)C[C@@H]1NC(=O)CC1CCC1 | -3.45% |
| Cn1cc(N2CCC3(CCN(Cc4nccs4)C3)C2=O)cn1 (configuration not stated) | -12.1% |
| Cc1cc(C)c2c(c1)C(NCc1c(C)nn(C)c1N(C)C)CCO2 (configuration not stated) | 3.6% |
| C1CCC(CNC2CCCN(Cc3noc(C4CC4)n3)C2)C1 (configuration not stated) | -10.4% |
| CCc1nc2n(n1)CC(Nc1cc(C)nc3ncnn13)CC2 (configuration not stated) | -5.27% |
| COCCN1CC2(CCCN(C(=O)NCCc3cccs3)C2)CCC1=O (configuration not stated) | 4.85% |
| Cc1nn(CN(Cc2ccsc2)C2CC2)c(=O)c2noc(C)c12 | -8.61% |
| CN(CCc1cccs1)C(=O)Nc1cnn(CC2CCCO2)c1 (configuration not stated) | -16% |
| CCOc1nnc(CN(C)CC2CCCN2c2cccnn2)s1 (configuration not stated) | -4.16% |
| O=C(c1ccc[nH]1)N1C[C@H]2CC[C@@H]1CN(c1ncccn1)C2 | -8.11% |
| CCOc1nc2cnccc2n(CC(=O)NCc2ccc(C)cc2)c1=O | -9.89% |
| CCOc1ccc(CC(=O)N2CCN(c3nccn3CC)CC2)cc1 | -1.22% |
| Cc1cccc2c1ccn2CCC(=O)Nc1c2c(nn1C)CSC2 | -7.62% |
| O=C(N[C@@H]1CN(Cc2ccoc2)[C@@H]2CCCO[C@@H]21)C1CC1 | -12.9% |
| Cc1ccc(N2CCO[C@H]3CN(Cc4ccccn4)C[C@H]32)nn1 | -9.99% |
| Cc1noc(C)c1CN1C[C@@H](NS(=O)(=O)N(C)C)[C@H](C(C)C)C1 | -8.39% |
| Cc1ccc(C(=O)Nc2ccc(N(C)C)nc2)n1C | 3.75% |
| Cc1ccc(CNCCS(=O)(=O)N2CCOCC2)cc1C | -6.06% |
| CCN1CCN(c2ccccc2NC(=O)N(C)C2CCSC2)CC1 (configuration not stated) | -13.8% |
| C[C@H](C(=O)N1Cc2ccccc2CC2(CCCN2C)C1)c1ccccc1 (some centres not stated) | -5.49% |
| CCCC1(C(=O)O)CCCN(C(=O)c2cc(Cl)ccc2F)C1 (configuration not stated) | -13.1% |
| CC(C)CC(=O)N1CCc2nc(N3CCOCC3)nc(NC(C)C)c2C1 | -15.8% |
| c1ccc2c(c1)nc1n2[C@@H](CNCc2nccs2)COC1 | -19.6% |

| Structure (SMILES) | cytotoxicity at 70.5 h |
| --- | --- |
| CC1CN(C(=O)NCc2cnn(-c3ccc(F)cc3F)c2)CCO1 (configuration not stated) | -11.2% |
| CCOC(=O)CNC(=O)N1CCOC(CCc2ccccc2)C1 (configuration not stated) | 15.8% |
| Cc1cc(C)c(Cn2cncn2)cc1CN1CCC(CN)C1 (configuration not stated) | -0.164% |
| FC(F)(F)Cn1cc(NCc2cscn2)cn1 | -5.23% |
| COc1ncccc1C(=O)N(C)Cc1nc(-c2ccccn2)no1 | -8.07% |
| Cc1cc(C(=O)N(C)Cc2ccn[nH]2)c(NC(=O)C(C)(C)C)s1 | -9.88% |
| CCn1cc(S(=O)(=O)N2CCCCCC2c2cc(C)on2)cn1 (configuration not stated) | 2.09% |
| CCCS(=O)(=O)NCCc1ncc(C)s1 | -11.1% |
| NC(=O)c1cc(-n2cc(-c3cccc(C(=O)O)c3)cn2)cs1 | -9.85% |
| NC(=O)C1(c2cnccn2)CCCN1Cc1ccncc1 (configuration not stated) | -0.768% |
| Cc1cc(=O)n2ncnc2n1CC(O)c1ccccc1Cl (configuration not stated) | -3.15% |
| CCCOC(=O)C(C)Sc1nnnn1C1CCOCC1 (configuration not stated) | -2.83% |
| CC(C)c1nc(C(=O)N2C[C@H]3CC[C@@H]2CN(C2CCOCC2)C3)cs1 | -7.88% |
| O=C(NCCNc1ncccn1)N1CCc2ccccc2C1 | 8.69% |
| COc1ccc(Cn2c(Cc3c(C)n[nH]c3C)n[nH]c2=O)cc1 | -12.9% |
| CN(C)C(=O)[C@H]1C[C@@H]2CCN(C3CCOCC3)C[C@@H]2O1 | -2.42% |
| CCC(=O)N1CCC(O)(c2ncc(OC)nc2OC)CC1 | -12.8% |
| CC(C1CC1)N(CC(=O)NC(=O)NC1CC1)C1CC1 (configuration not stated) | -3.17% |
| Cc1cc(S(=O)(=O)N2C[C@H](C3CC3)[C@@H](N)C2)c(C)s1 | -6.03% |
| Cc1cccc(C(=O)N2CCCC(c3noc(C)n3)C2)n1 (configuration not stated) | -1.99% |
| CCS(=O)(=O)N[C@H]1CN(Cc2noc(COC)n2)C[C@@H]1C1CC1 | -8.57% |
| Cc1c2c(C(F)F)cc(SCC(=O)O)nc2nn1C | -2.86% |
| Clc1ccc(CN2CCC3(CC2)CC(c2cccnc2)=NO3)cc1 | 3.85% |

| Structure (SMILES) | cytotoxicity at 70.5 h |
| --- | --- |
| Cc1cnn(CC2CN(Cc3nccn3CC(F)(F)F)CCO2)c1 (configuration not stated) | 26.3% |
| Cc1ccc(CN2CC[C@H]3CO[C@H](CN(C)C)[C@H]3C2)o1 | -11.2% |
| Cc1nn(C)c(C)c1C1CCCN1CCOc1ccccc1C#N (configuration not stated) | 1.39% |
| COC(=O)N1CCC(Nc2cccc(F)c2C(C)=O)CC1 | -10.1% |
| COc1ccc(CCN2CC(c3nc(CSC)no3)CCC2=O)cc1 (configuration not stated) | -4.88% |
| CN1[C@@H](C(=O)NCC2CC2)C[C@@H]2CN(Cc3ccco3)C[C@@H]21 | -12.2% |
| COc1cccc(COCC(=O)N2CCCC(c3ccn[nH]3)C2)c1 (configuration not stated) | 20.5% |
| COc1ccc(S(=O)(=O)C(F)(F)F)cc1NC(=O)CSC | -1.98% |
| Cn1cccc1-c1cc(C(=O)N2CCCC2c2cccnc2)[nH]n1 (configuration not stated) | -4.46% |
| CN1CCN(Cc2ccoc2)Cc2cccnc21 | -4.02% |
| NC(=O)CN1CCC(C(=O)NCc2ccc3nonc3c2)CC1 | -14.2% |
| CCC(C)NC(=O)c1cc(S(=O)(=O)N2CCCC2)c(C)s1 (configuration not stated) | -3.53% |
| COc1ccccc1CCN1CCCC(CN(C)Cc2c[nH]c(C)n2)C1 (configuration not stated) | 14.9% |
| COc1ccsc1C(=O)N1CCCN(Cc2cscn2)CC1 | -5.36% |
| CCc1cc(NCCCc2nc(C)no2)nc(-c2ccncc2)n1 | -5.75% |
| O=C(O)c1ccc(CC2CCN(Cc3ccc(-c4cc[nH]n4)o3)C2)cc1 (configuration not stated) | -5.13% |
| CN(C)CCN1CC2(CCCN(c3ncc(Cl)cc3F)C2)CCC1=O (configuration not stated) | -5.68% |
| Cc1ccc(-c2nccn2-c2ccc(OC3CCN(C)CC3)cc2)o1 | 17% |
| Cc1ccc(C(=O)Cc2c(Cl)nc3n(C)c(=O)n(C)c(=O)n23)cc1 | -9.41% |
| COc1ccc(CN2CCC3(CC2)CCN(CC2CC2)C3=O)cc1 | -14.4% |
| Cc1ccc(C(=O)N2CCC3(CC2)COCCN(S(C)(=O)=O)C3)cc1C | -6.37% |
| CN1C(=O)[C@H]2CC[C@@H]1CN(C(=O)Nc1cccc3ccccc13)C2 | -6.28% |
| CN1CCc2c(C#N)c(NCC3CCCO3)n3cnnc3c2C1 (configuration not stated) | -5.45% |

| Structure (SMILES) | cytotoxicity at 70.5 h |
| --- | --- |
| O=C(c1cn(Cc2ccccc2)c2ncccc12)N1CCCCC1 | 3.09% |
| CCOc1cc(CN[C@@H]2COC[C@H]2Cc2cc(C)no2)ccc1O | -2.12% |
| Cc1noc(C)c1CNC(=O)N1CCN(Cc2cscn2)CC1 | -5.24% |
| COc1cccc(CNC(=O)c2cc(C)nc(N3CCCCC3)n2)c1 | -9.69% |
| CSc1ccc(NCC(=O)NC(=O)NCC(F)(F)F)cc1F | 19.5% |
| CC(C)(O)CN1CCN(C(=O)c2ccc3c(c2)COC3)CC1 | -5.78% |
| CCC(CO)N(Cc1ccncc1)Cc1c[nH]nc1-c1ccc(F)cc1 (configuration not stated) | -7.22% |
| Cn1c(NCC(=O)N2CCCC2)c(C#N)c(=O)n(C)c1=O | 12.4% |
| CCC(C)NC(=O)c1ccc(CNC(=O)CCC(C)C)cc1 (configuration not stated) | 15.4% |
| CC(c1ccccc1)n1c(SCC(=O)O)nnc1-c1ccn[nH]1 (configuration not stated) | -5.88% |
| CC(C)N(C)[C@@H]1CCN(Cc2ccoc2)[C@H]1Cc1ccccc1 | -1.21% |
| CCN1CCC(CC(=O)NCC(O)c2ccc3ccccc3c2)CC1 (configuration not stated) | 9.43% |
| CCc1c(C)nc2ccccc2c1N1CCC(NC(C)=O)CC1 | -6.65% |
| NC(=O)NCC(=O)N1CCCC(c2nccn2CC2CCC2)C1 (configuration not stated) | -1.33% |
| COc1ccccc1CN1CC[C@H](c2nnc(-c3cncn3C)o2)C1 | -1.04% |
| N#Cc1c(Cl)nsc1NCCN1CCOCC1 | -10.1% |
| CCC(CC)c1cc(C(=O)N2CCN(C(C)C(N)=O)CC2)on1 (configuration not stated) | -7.02% |
| Cc1nsc2ncc(C(=O)N3CCCC3c3cnn(C)c3)cc12 (configuration not stated) | -0.553% |
| Cn1ccnc1CN1CCC(CCC(=O)Nc2ccccc2Cl)CC1 | -2.64% |
| CNC(=O)COc1ccccc1CNC1CCc2nc(C)nn2C1 (configuration not stated) | -6.32% |
